We go through 15 compounds from article PMC12371487, “Phenylalkyl Acetophenones and Anacardic Acids from Knema oblongifolia with Synthetic Analogues as Anti-infectives and Antibacterial Agents” (ACS Bio & Med Chem Au, 2025).

Values after ≈ are worked out from the molar mass of the structure shown. Values joined by “and” are separate entries in the source; they are usually repeats but may differ in a detail not shown here. Equal entries are not always repeated. Where two headings read alike, the source gives them in different places.

Experiment [1] concerns Mycobacterium marinum (Mm) in infection of Dictyostelium discoideum. Nature of the experiment: Dd-Mm infection assay: intracellular Mm growth (luminescence). The conditions noted are these: Mm inside Dd, luminescence AUC over 72 h at 25 °C; 6-concentration curve, top 100 μM, 1:3 steps; IC50 interpolated. Type of experiment: cell-based. The protocol:
(§1) Plant extracts, fractions, or isolated compounds were stored at −20 °C and wrapped in aluminum foil if necessary. All manipulations with extracts, fractions, or compounds were performed under a sterile hood. Extracts, fractions, and compounds were resuspended throughout in DMSO to best solubilize extracts with diverse constituents. Extracts, fractions, or compounds were added to the assay plate in a 1:100 dilution. Assay solutions of extracts, fractions, and compounds were prepared in 96-well plates, stored at −20 °C, and thawed before the experiment at room temperature or warmer with or without shaking/vortexing to obtain a clear assay solution. Extracts were tested at 25 μg/mL and purified compounds in a dose–response curve of 6 concentrations with 100 μM being the top concentration and a 1:3 dilution step between each testing concentration. Since fractions were not weighed individually, the injection mass was used to calculate an average mass per fraction and thus a nominal mass concentration. Fractions were tested at a nominal concentration of 10 μg/mL.
(§2) As described in Nitschke et al. and Mottet et al., Dd Ax2(ka) expressing mCherry from the act5 chromosomal locus was infected with Mm M strain expressing the lux operon (luxCDABE) , by spinoculation.
(§3) Briefly, the day before the experiment, Mm was cultivated in 7H9 broth (Becton Dickinson, Difco Middlebrook 7H9) supplemented with 10% OADC (Becton Dickinson) and 0.05% tyloxapol (Sigma-Aldrich) and 50 μg/mL kanamycin at 32 °C overnight with continuous shaking. Additionally, the day before the experiment, 10^7 amoebae were plated in HL5-C in a 10 cm Petri dish (Falcon). On the day of the experiment, a volume of the Mm culture corresponding to a multiplicity of infection of 25 with respect to the number of amoebae in the Petri dish was added to the semiconfluent amoebae monolayer. Subsequently, the Petri dishes were centrifuged twice at 500g, as described in Mottet et al. To remove extracellular bacteria, dishes were rinsed with fresh HL5-C, and the infected cell population was resuspended in HL5-C with 5 U/mL penicillin and 5 μg/mL streptomycin (Gibco) to inhibit the extracellular growth of bacteria during the course of the experiment.
(§4) For testing fractions and purified compounds, 20 μL of infected cell suspension was plated into each well of a 384-well plate (Interchim FP-BA8240) to an effective cell number of 1 × 10^4 cells per well. Fractions or compounds including a vehicle control (0.3% DMSO final concentration) and a positive control (rifabutin, 10 μM final concentration) were added using an electronic multipipette (Sartorius). Subsequently, the well plates were sealed with a gas impermeable membrane (H769.1, Carl Roth), briefly centrifuged, and intracellular bacterial growth was monitored using an Agilent BioTek H1 plate reader and an Agilent BioTek BioStack plate stacker by recording luminescence over 72 h at 25 °C with readings taken every hour. Fluorescence was also recorded to monitor amoeba growth.
(§5) For both assays, growth curves were obtained by measuring the luminescence and fluorescence as a proxy for bacterial growth and host growth, respectively, for 72 h with time-points taken every hour. The “normalized residual growth” was computed by calculating the area under the curve (AUC, trapezoid method) and normalizing it to the vehicle control (0.3% DMSO, set at 1) and a baseline curve (set at 0). The baseline curve was calculated by taking the median of the first measurement of all wells in a plate and extrapolating it over the complete time course. The threshold for hit detection was arbitrarily fixed at a cutoff of normalized residual growth ≤0.5. Normalized values were averaged over technical and biological replicates (all experiments on isolated compounds have at least n = 3 and N = 3, whereas the primary extract screening and microfractions testing had values of n = 1 and N = 3). […]

Experiment [2] concerns Mycobacterium marinum (Mm) in broth. Nature of the experiment: Mm growth in broth (antibiotic assay, luminescence). Type of experiment: cell-based. The settings on record: 72 h; for IC50: read-out: IC50 on Mm in broth. The protocol:
as §1, with “Extracts, fractions, and compounds were resuspended throughout in DMSO to best solubilize extracts with diverse constituents.” left out
For testing bacteria in broth, the preculture was diluted to a bacterial density of 3.75 × 10^5 bacteria per mL in 7H9 medium. Plating bacteria and compounds or fractions was performed analogously to the infection assay described above. Bacteria growth was monitored with the Agilent BioTek H1 plate reader by recording luminescence at 32 °C.
For both assays, growth curves were obtained by measuring the luminescence and fluorescence as a proxy for bacterial growth and host growth, respectively, for 72 h with time-points taken every hour. The “normalized residual growth” was computed by calculating the area under the curve (AUC, trapezoid method) and normalizing it to the vehicle control (0.3% DMSO, set at 1) and a baseline curve (set at 0). The baseline curve was calculated by taking the median of the first measurement of all wells in a plate and extrapolating it over the complete time course. The threshold for hit detection was arbitrarily fixed at a cutoff of normalized residual growth ≤0.5.
This procedure was also applied to screening extracts with slight modifications. The day before the experiment we preplated 10 μL of HL5-C using a dispenser (Thermo Multidrop), subsequently we preplated 2.2 μL of dissolved extracts from 96-well plates into quadrants 1, 2, and 3 of 384-well plates, whereas quadrant 4 was used for positive and vehicle controls. Preplating of extracts was performed using a liquid handler (Agilent Bravo). In total, 24 extract plates were distributed in triplicate into […] 384-well plates, amounting to 24 assay plates. The prepared plates were sealed and stored at 4 °C overnight. On the day of the experiment, nine 10 cm Petri dishes were infected (as described before) and grouped into three pools. The cell suspension was adjusted to 10^6 cells/mL, and 10 μL was plated into the 24 assay plates, resulting in 10^4 cells per well, as used for conventional infection experiments. Plates were sealed and placed in the plate stacker that supplied the plate reader. The same procedure was used to screen the same extracts on Mm in a broth. For both assays, the first time points and a time point after 72 h were recorded. Subsequently, we normalized the end point, first with the median of the full assay plate at the first time point and second with the end point of the vehicle controls in the respective assay plate.
For IC50 estimation, we used a rudimentary approach of interpolating the sample concentration between the two normalized residual growth values, which were closest to a value of 0.5.

Experiment [3] has as its system Staphylococcus aureus (Sa) Newman strain. Nature of the experiment: MIC determination in Mueller-Hinton broth (CLSI) on Sa. The conditions noted are these: Mueller-Hinton broth, CLSI; for MIC: Staphylococcus aureus, NEWMAN, read-out: MIC on Sa. Type of experiment: cell-based. On the procedure:
MICs were determined in Mueller–Hinton (MH) broth according to CLSI guidelines and were repeated at least on three different occasions.
The Newman strain ofS. aureus and the UCBPP-PA14 strain ofP. aeruginosa were used in this study.

For experiment [4], the system named is Dictyostelium discoideum (Dd) in infection. Nature of the experiment: Dd-Mm infection assay: host amoeba growth (fluorescence). Type of experiment: cell-based. The conditions noted are these: infected Dd, fluorescence AUC over 72 h at 25 °C, 6-concentration curve, top 100 μM, 1:3 steps, IC50 interpolated. The protocol:
as §1, §2, §3, §4, §5

The test system of experiment [5] is Staphylococcus aureus (Sa) Newman strain. The conditions noted are these: literature report; reference number not shown in text; cited from earlier work.
Where [6] appears, read: Mm in 7H9 broth, luminescence at 32 °C, IC50 interpolated.

What is called IC50 is the concentration that inhibits the measured activity by half. Consider 2,4-Dihydroxychalcone [Compound 14], for which the IC50 worked out at 2.47 µM in experiment [1], 66.7 µM in experiment [2] (setting [6]) and 7.41 µM in experiment [4]. The “MIC on Sa” value in experiment [3] is on record as 32 mg·L–1.

Regarding “5-Bromo-2,4-dihydroxychalcone [Compound 25]”, the IC50 in experiment [1] was found to be 0.82 µM; in experiment [2] (setting [6]), 66.7 µM; in experiment [4], 0.82 µM. In addition, the “MIC on Sa” value in experiment [3] is recorded as “not active”.

Turning to “5-Chloro-2,4-dihydroxychalcone [Compound 22]”, the IC50 was 1.76 µM in experiment [1], 47.6 µM in experiment [2] (setting [6]) and 1.76 µM in experiment [4]. For the same compound, the “MIC on Sa” value in experiment [3] was 32 μg·mL^–1 and 32 mg·L–1.

What is called MIC is the lowest concentration that inhibits growth of the organism. For `O=C(O)c1c(O)cccc1CCCCc1ccc2c(c1)OCO2` [Compound 3, Knemolic acid A], the IC50 in experiment [1] and in experiment [4] (Dictyostelium discoideum) was 66.7 µM each time. The “IC50 on Mm in broth” value in experiment [2] (setting [6]) is listed as “Not active”. In experiment [3], the MIC was 8 µg/mL (≈ 25.5 µM).

Turning to `CC(=O)c1c(O)cc(O)cc1CCCCc1ccccc1` [Compound 2, Knemolone B], the concentration for half-maximal inhibition (IC50) in experiment [1] and in experiment [4] (Dictyostelium discoideum) was 22.2 µM throughout. Besides, the “IC50 on Mm in broth” value in experiment [2] (setting [6]) was “Not active”. The minimum inhibitory concentration (MIC) in experiment [3] is 32 µg/mL (≈ 113 µM).

As for `CC(=O)c1ccc(O)c(Cl)c1O` [Compound 15, 3-Chloro-2,4-dihydroxyacetophenone], the IC50 in experiment [1] and in experiment [4] (Dictyostelium discoideum) was 22.2 µM in each case. For the same compound, in experiment [2] (setting [6]), the “IC50 on Mm in broth” value is on record as “not active”. The “MIC on Sa” value in experiment [3] is on record as “not active”.

On to `O=C(/C=C/c1cccc2ccccc12)c1cc(Cl)c(O)cc1O` [Compound 26, (E)-1-(5-Chloro-2,4-dihydroxyphenyl)-3-(naphthalen-1-yl)prop-2-en-1-one], for which the IC50 amounted to 0.59 µM in experiment [1], 47.6 µM in experiment [2] (Mycobacterium marinum) and 1.47 µM in experiment [4] (Dictyostelium discoideum). The “MIC on Sa” value in experiment [3] is “not active”.

Take `O=C(O)c1c(O)cccc1CCCCCCCCc1ccc2c(c1)OCO2` [Compound 9, Kneglobularic acid B]: the IC50 was found to be 7.41 µM in experiment [1] and 22.2 µM in experiment [4] (Dictyostelium discoideum). In addition, the “IC50 on Mm in broth” value in experiment [2] (setting [6]) is reported as “Not active”. Moreover, the minimum inhibitory concentration (MIC) in experiment [3] worked out at 8 µg/mL (≈ 21.6 µM).

Regarding “3-Bromo-2,4-dihydroxychalcone [Compound 24]”, the IC50 in experiment [1] and in experiment [4] was 2.47 µM each time. Besides, the “IC50 on Mm in broth” value in experiment [2] (setting [6]) was “not active”. Besides, the “MIC on Sa” value in experiment [3] was determined as 64 mg·L–1.

Regarding `CC(=O)c1c(O)cc(O)c(Cl)c1CCCCCCc1ccccc1` [Compound 28, 1-(3-Chloro-4,6-dihydroxy-2-(6-phenylhexyl)phenyl)ethan-1-one], the 50% inhibitory concentration (IC50) came out at 2.47 µM in experiment [1], 22.2 µM in experiment [2] (Mycobacterium marinum) and 0.82 µM in experiment [4] (Dictyostelium discoideum). Moreover, the MIC in experiment [3] worked out at 4 µg/mL (≈ 11.5 µM).

In turn, `CCCCCCCCCCCCCCCc1cccc(O)c1C(=O)O` [anacardic acid] gave an IC50 in experiment [1] of 22.2 µM. Further, the “IC50 on Mm in broth” value in experiment [2] (setting [6]) is given as “not active”. Further, the “MIC on Sa” value in experiment [3] is on record as 16 mg·L–1; in experiment [3] (listed as Anacardic acid), 16 μg·mL^–1. In addition, the “IC50 on Dd in infection” value in experiment [4] is “not active”. For the same compound, in experiment [5], the “active dose against Sa (already reported)” value was 25 μg mL^–1.

`CC(=O)c1cc(Br)c(O)c(Br)c1O` [Compound 20, 3,5-Dibromo-2,4-dihydroxyacetophenone]: the concentration for half-maximal inhibition (IC50) in experiment [1] and in experiment [4] (Dictyostelium discoideum) was 66.7 µM throughout. Moreover, the “IC50 on Mm in broth” value in experiment [2] (setting [6]) is recorded as “not active”. Further, in experiment [3], the “MIC on Sa” value is recorded as “not active”.

Regarding “3-Chloro-2,4-dihydroxychalcone [Compound 21]”, the IC50 in experiment [1] was determined as 1.76 µM; in experiment [2] (setting [6]), 47.6 µM; in experiment [4], 0.59 µM. Moreover, the “MIC on Sa” value in experiment [3] was 32–64 mg·L–1.

Consider “3,5-Dichloro-2,4-dihydroxychalcone [Compound 23]”, for which the IC50 in experiment [1] turned out to be 1.76 µM; in experiment [2] (setting [6]), 47.6 µM; in experiment [4] it was 1.76 µM. The “MIC on Sa” value in experiment [3] is 4 μg·mL^–1 and 4 mg·L–1.

On to `O=C(O)c1c(O)cccc1CCCCCCCCc1ccccc1` [Compound 10, Khookerianic acid C/Kneglobularic acid A], for which the 50% inhibitory concentration (IC50) in experiment [1] and in experiment [4] (Dictyostelium discoideum) was 2.47 µM in each case. Also, the “IC50 on Mm in broth” value in experiment [2] (setting [6]) is “Not active”. In experiment [3], the MIC came out at 8 µg/mL (≈ 24.5 µM).
